Test results as given in US10294202B2, “Pyrrolidinones as herbicides” (FMC Corporation, priority 2013, dated 2019).

How the values were obtained:
barnyardgrass [1] = test: Test A pre-/postemergence herbicide test; assay type: in vivo, Echinochloa crus-galli; conditions: 1000 g ai/ha
Summary of the method: (§1)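 Approximately 10 days after treatment in the greenhouse, plants were compared with untreated controls and given a 0–100 visual injury rating. Applications: preemergence directed soil spray; postemergence on 2–10 cm plants at the one- to two-leaf stage.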

crabgrass, large = test: Test A pre-/postemergence herbicide test; assay type: in vivo, Digitaria sanguinalis; conditions: 1000 g ai/ha
Summary of the method: as §1

giant foxtail = test: Test A pre-/postemergence herbicide test; assay type: in vivo, Setaria faberii; conditions: 1000 g ai/ha
Summary of the method: as §1

morningglory = test: Test A pre-/postemergence herbicide test; assay type: in vivo, Ipomoea spp.; conditions: 1000 g ai/ha
Summary of the method: as §1

pigweed = test: Test A pre-/postemergence herbicide test; assay type: in vivo, Amaranthus retroflexus; conditions: 1000 g ai/ha
Summary of the method: as §1

velvetleaf = test: Test A pre-/postemergence herbicide test; assay type: in vivo, Abutilon theophrasti; conditions: 1000 g ai/ha
Summary of the method: as §1

wheat = test: Test A pre-/postemergence herbicide test; assay type: in vivo, Triticum aestivum; conditions: 1000 g ai/ha
Summary of the method: as §1

corn = test: Test A pre-/postemergence herbicide test; assay type: in vivo, Zea mays; conditions: 1000 g ai/ha
Summary of the method: as §1

rice = test: Test C flooded paddy test; assay type: in vivo, Oryza sativa; conditions: Flood
Text: (§2) Plant species in the flooded paddy test consisted of rice (Oryza sativa), sedge, umbrella (small-flower umbrella sedge, Cyperus difformis), ducksalad (Heteranthera limosa), and barnyardgrass (Echinochloa crus-galli) grown to the 2-leaf stage for testing. At time of treatment, test pots were flooded to 3 cm above the soil surface, treated by application of test compounds directly to the paddy water, and then maintained at that water depth for the duration of the test. Treated plants and controls were maintained in a greenhouse for 13 to 15 days, after which time all species were compared to controls and visually evaluated. Plant response ratings, summarized in Table C, are based on a scale of 0 to 100 where 0 is no effect and 100 is complete control. A dash (-) response means no test result.

sedge, umbrella = test: Test C flooded paddy test; assay type: in vivo, Cyperus difformis; conditions: Flood
Text: as §2

ducksalad = test: Test C flooded paddy test; assay type: in vivo, Heteranthera limosa; conditions: Flood
Text: as §2

barnyardgrass [2] = test: Test C flooded paddy test; assay type: in vivo, Echinochloa crus-galli; conditions: Flood
Text: as §2

[3] = Postemergence, 0 to 100 scale (0 no effect, 100 complete control)
[4] = Preemergence, visual rating on 0 to 100 scale (0 no effect, 100 complete control), approx. 10 days
[5] = 31 g ai/ha, scale of 0 to 100 where 0 is no effect and 100 is complete control, 13 to 15 days
[6] = 62 g ai/ha, scale of 0 to 100 where 0 is no effect and 100 is complete control, 13 to 15 days
[7] = 125 g ai/ha, scale of 0 to 100 where 0 is no effect and 100 is complete control, 13 to 15 days

Cc1ccccc1NC(=O)C1C(=O)NCC1c1ccc(F)c(F)c1 (racemic) [Compound 19]
10: Plant response rating, Velvetleaf (velvetleaf; [3])
0: Plant response rating, Morningglory (morningglory; [3]) | Plant response rating, Morningglory (morningglory; [4]) | Plant response rating, Pigweed (pigweed; [3]) | Plant response rating, Pigweed (pigweed; [4]) | Plant response rating, Velvetleaf (velvetleaf; [4]) | Plant response rating, Wheat (wheat; [4]) | Plant response rating, Corn (corn; [3]) | Plant response rating, Corn (corn; [4]) | Plant response rating, Rice (rice; [5]) | Plant response rating, Rice (rice; [6]) | Plant response rating, Rice (rice; [7]) | Plant response rating, Rice (rice; 250 g ai/ha, scale 0 to 100) | Plant response rating, Sedge, Umbrella (sedge, umbrella; [5]) | Plant response rating, Sedge, Umbrella (sedge, umbrella; [6]) | Plant response rating, Sedge, Umbrella (sedge, umbrella; [7]) | Plant response rating, Sedge, Umbrella (sedge, umbrella; 250 g ai/ha, scale 0 to 100) | Plant response rating, Ducksalad (ducksalad; [5]) | Plant response rating, Ducksalad (ducksalad; [6]) | Plant response rating, Ducksalad (ducksalad; [7]) | Plant response rating, Ducksalad (ducksalad; 250 g ai/ha, scale 0 to 100) | Plant response rating, Barnyardgrass (barnyardgrass [2]; [5]) | Plant response rating, Barnyardgrass (barnyardgrass [2]; [6]) | Plant response rating, Barnyardgrass (barnyardgrass [2]; [7]) | Plant response rating, Barnyardgrass (barnyardgrass [2]; 250 g ai/ha, scale 0 to 100)
90: Plant response rating, Barnyardgrass (barnyardgrass [1]; [3]) | Plant response rating, Barnyardgrass (barnyardgrass [1]; [4]) | Plant response rating, Crabgrass, Large (crabgrass, large; [3]) | Plant response rating, Crabgrass, Large (crabgrass, large; [4]) | Plant response rating, Foxtail, Giant (giant foxtail; [4])
80: Plant response rating, Foxtail, Giant (giant foxtail; [3])
30: Plant response rating, Wheat (wheat; [3])

CS(=O)(=O)c1ccccc1NC(=O)C1C(=O)NCC1c1ccc(F)c(F)c1 (racemic) [Compound 21]
90: Plant response rating, Barnyardgrass (barnyardgrass [1]; [3]) | Plant response rating, Barnyardgrass (barnyardgrass [1]; [4]) | Plant response rating, Crabgrass, Large (crabgrass, large; [4]) | Plant response rating, Foxtail, Giant (giant foxtail; [4])
20: Plant response rating, Wheat (wheat; [4])
85: Plant response rating, Ducksalad (ducksalad; 250 g ai/ha, scale 0 to 100)
0: Plant response rating, Morningglory (morningglory; [3]) | Plant response rating, Corn (corn; [3]) | Plant response rating, Corn (corn; [4]) | Plant response rating, Rice (rice; [5]) | Plant response rating, Rice (rice; [6]) | Plant response rating, Rice (rice; [7]) | Plant response rating, Rice (rice; 250 g ai/ha, scale 0 to 100) | Plant response rating, Sedge, Umbrella (sedge, umbrella; [5]) | Plant response rating, Sedge, Umbrella (sedge, umbrella; [6]) | Plant response rating, Sedge, Umbrella (sedge, umbrella; [7]) | Plant response rating, Sedge, Umbrella (sedge, umbrella; 250 g ai/ha, scale 0 to 100) | Plant response rating, Ducksalad (ducksalad; [5]) | Plant response rating, Ducksalad (ducksalad; [6]) | Plant response rating, Barnyardgrass (barnyardgrass [2]; [5]) | Plant response rating, Barnyardgrass (barnyardgrass [2]; [6]) | Plant response rating, Barnyardgrass (barnyardgrass [2]; [7]) | Plant response rating, Barnyardgrass (barnyardgrass [2]; 250 g ai/ha, scale 0 to 100)
80: Plant response rating, Crabgrass, Large (crabgrass, large; [3]) | Plant response rating, Foxtail, Giant (giant foxtail; [3])
30: Plant response rating, Wheat (wheat; [3])
50: Plant response rating, Velvetleaf (velvetleaf; [4]) | Plant response rating, Ducksalad (ducksalad; [7])
60: Plant response rating, Velvetleaf (velvetleaf; [3])
40: Plant response rating, Morningglory (morningglory; [4]) | Plant response rating, Pigweed (pigweed; [4])

O=C1NCC(c2ccc(Cl)c(Cl)c2)C1C(=O)Nc1cccc(F)c1F (racemic) [Compound 25]
0: Plant response rating, Morningglory (morningglory; [4]) | Plant response rating, Pigweed (pigweed; [3]) | Plant response rating, Pigweed (pigweed; [4]) | Plant response rating, Velvetleaf (velvetleaf; [4]) | Plant response rating, Wheat (wheat; [3]) | Plant response rating, Wheat (wheat; [4]) | Plant response rating, Corn (corn; [3]) | Plant response rating, Corn (corn; [4]) | Plant response rating, Rice (rice; [6]) | Plant response rating, Rice (rice; 250 g ai/ha, scale 0 to 100) | Plant response rating, Sedge, Umbrella (sedge, umbrella; [6]) | Plant response rating, Sedge, Umbrella (sedge, umbrella; 250 g ai/ha, scale 0 to 100) | Plant response rating, Ducksalad (ducksalad; [6]) | Plant response rating, Barnyardgrass (barnyardgrass [2]; [6]) | Plant response rating, Barnyardgrass (barnyardgrass [2]; 250 g ai/ha, scale 0 to 100)
60: Plant response rating, Ducksalad (ducksalad; 250 g ai/ha, scale 0 to 100)
90: Plant response rating, Crabgrass, Large (crabgrass, large; [4]) | Plant response rating, Foxtail, Giant (giant foxtail; [3]) | Plant response rating, Foxtail, Giant (giant foxtail; [4])
10: Plant response rating, Morningglory (morningglory; [3]) | Plant response rating, Velvetleaf (velvetleaf; [3])
80: Plant response rating, Barnyardgrass (barnyardgrass [1]; [3]) | Plant response rating, Barnyardgrass (barnyardgrass [1]; [4]) | Plant response rating, Crabgrass, Large (crabgrass, large; [3])
